Test: Organ distribution of injected radioactivity in rats after I.V. injection
Type: in vivo, Ratten (weiblich, Wistar, spf)
Conditions: Ratte
Protocol: Es werden je 3 Ratten (weiblich, Wistar, spf) zu sieben verschiedenen Zeitpunkten (2′, 10′, 20′, 40′, 1h, 6h, 15h) gemessen. Das Gewicht der Tiere lag zwischen 113 und 144 g. Die Fütterung erfolgte ad libitum. Die I.V. injizierten Dosen variierten von 184 bis 355 µCi in jeweils 0,2 ml.

SMILES: CCOC(=O)c1ncn2c1CN(C)C(=O)c1c([123I])cccc1-2 [Aethyl-7-¹²³Jod-5,6-dihydro-5-methyl-6-oxo-4H-imidazo[1,5-a][1,4]benzodiazepin-3-carboxylat]
- Prozent der injizierten Aktivität in den entsprechend Organen (Blase, 2′): 0,03 Prozent der injizierten Aktivität
- Prozent der injizierten Aktivität in den entsprechend Organen (Blase, 10′): 0,06 Prozent der injizierten Aktivität
- Prozent der injizierten Aktivität in den entsprechend Organen (Blase, 20′): 0,03 Prozent der injizierten Aktivität
- Prozent der injizierten Aktivität in den entsprechend Organen (Blase, 40′): 0,01 Prozent der injizierten Aktivität
- Prozent der injizierten Aktivität in den entsprechend Organen (Blase, 60′): 0,03 Prozent der injizierten Aktivität
- Prozent der injizierten Aktivität in den entsprechend Organen (Blase, 6h): 0,09 Prozent der injizierten Aktivität
- Prozent der injizierten Aktivität in den entsprechend Organen (Blase, 15h): 0,0022 Prozent der injizierten Aktivität
- Prozent der injizierten Aktivität in den entsprechend Organen (Darm, 2′): 9,28 Prozent der injizierten Aktivität
- Prozent der injizierten Aktivität in den entsprechend Organen (Darm, 10′): 12,70 Prozent der injizierten Aktivität
- Prozent der injizierten Aktivität in den entsprechend Organen (Darm, 20′): 22,53 Prozent der injizierten Aktivität
- Prozent der injizierten Aktivität in den entsprechend Organen (Darm, 40′): 25,54 Prozent der injizierten Aktivität
- Prozent der injizierten Aktivität in den entsprechend Organen (Darm, 60′): 28,48 Prozent der injizierten Aktivität
- Prozent der injizierten Aktivität in den entsprechend Organen (Darm, 6h): 19,50 Prozent der injizierten Aktivität
- Prozent der injizierten Aktivität in den entsprechend Organen (Darm, 15h): 1,012 Prozent der injizierten Aktivität
- Prozent der injizierten Aktivität in den entsprechend Organen (Femur, 2′): 0,39 Prozent der injizierten Aktivität
- Prozent der injizierten Aktivität in den entsprechend Organen (Femur, 10′): 0,25 Prozent der injizierten Aktivität
- Prozent der injizierten Aktivität in den entsprechend Organen (Femur, 20′): 0,14 Prozent der injizierten Aktivität
- Prozent der injizierten Aktivität in den entsprechend Organen (Femur, 40′): 0,06 Prozent der injizierten Aktivität
- Prozent der injizierten Aktivität in den entsprechend Organen (Femur, 60′): 0,04 Prozent der injizierten Aktivität
- Prozent der injizierten Aktivität in den entsprechend Organen (Femur, 6h): 0,01 Prozent der injizierten Aktivität
- Prozent der injizierten Aktivität in den entsprechend Organen (Femur, 15h): 0,004 Prozent der injizierten Aktivität
- Prozent der injizierten Aktivität in den entsprechend Organen (Herz, 2′): 0,58 Prozent der injizierten Aktivität
- Prozent der injizierten Aktivität in den entsprechend Organen (Herz, 10′): 0,37 Prozent der injizierten Aktivität
- Prozent der injizierten Aktivität in den entsprechend Organen (Herz, 20′): 0,17 Prozent der injizierten Aktivität
- Prozent der injizierten Aktivität in den entsprechend Organen (Herz, 40′): 0,06 Prozent der injizierten Aktivität
- Prozent der injizierten Aktivität in den entsprechend Organen (Herz, 60′): 0,03 Prozent der injizierten Aktivität
- Prozent der injizierten Aktivität in den entsprechend Organen (Herz, 6h): 0,009 Prozent der injizierten Aktivität
- Prozent der injizierten Aktivität in den entsprechend Organen (Herz, 15h): 0,0035 Prozent der injizierten Aktivität
- Prozent der injizierten Aktivität in den entsprechend Organen (Hirn, 2′): 3,11 Prozent der injizierten Aktivität
- Prozent der injizierten Aktivität in den entsprechend Organen (Hirn, 10′): 5,38 Prozent der injizierten Aktivität
- Prozent der injizierten Aktivität in den entsprechend Organen (Hirn, 20′): 4,20 Prozent der injizierten Aktivität
- Prozent der injizierten Aktivität in den entsprechend Organen (Hirn, 40′): 4,02 Prozent der injizierten Aktivität
- Prozent der injizierten Aktivität in den entsprechend Organen (Hirn, 60′): 2,42 Prozent der injizierten Aktivität
- Prozent der injizierten Aktivität in den entsprechend Organen (Hirn, 6h): 0,08 Prozent der injizierten Aktivität
- Prozent der injizierten Aktivität in den entsprechend Organen (Hirn, 15h): 0,0015 Prozent der injizierten Aktivität
- Prozent der injizierten Aktivität in den entsprechend Organen (Kot + Urin, 2′): 0,05 Prozent der injizierten Aktivität
- Prozent der injizierten Aktivität in den entsprechend Organen (Kot + Urin, 10′): 6,17 Prozent der injizierten Aktivität
- Prozent der injizierten Aktivität in den entsprechend Organen (Kot + Urin, 20′): 19,39 Prozent der injizierten Aktivität
- Prozent der injizierten Aktivität in den entsprechend Organen (Kot + Urin, 40′): 48,72 Prozent der injizierten Aktivität
- Prozent der injizierten Aktivität in den entsprechend Organen (Kot + Urin, 60′): 51,71 Prozent der injizierten Aktivität
- Prozent der injizierten Aktivität in den entsprechend Organen (Kot + Urin, 6h): 48,81 Prozent der injizierten Aktivität
- Prozent der injizierten Aktivität in den entsprechend Organen (Kot + Urin, 15h): 42,69 Prozent der injizierten Aktivität
- Prozent der injizierten Aktivität in den entsprechend Organen (Leber, 2′): 16,90 Prozent der injizierten Aktivität
- Prozent der injizierten Aktivität in den entsprechend Organen (Leber, 10′): 34,37 Prozent der injizierten Aktivität
- Prozent der injizierten Aktivität in den entsprechend Organen (Leber, 20′): 17,61 Prozent der injizierten Aktivität
- Prozent der injizierten Aktivität in den entsprechend Organen (Leber, 40′): 3,90 Prozent der injizierten Aktivität
- Prozent der injizierten Aktivität in den entsprechend Organen (Leber, 60′): 1,29 Prozent der injizierten Aktivität
- Prozent der injizierten Aktivität in den entsprechend Organen (Leber, 6h): 0,15 Prozent der injizierten Aktivität
- Prozent der injizierten Aktivität in den entsprechend Organen (Leber, 15h): 0,107 Prozent der injizierten Aktivität
- Prozent der injizierten Aktivität in den entsprechend Organen (Lunge, 2′): 1,04 Prozent der injizierten Aktivität
- Prozent der injizierten Aktivität in den entsprechend Organen (Lunge, 10′): 0,81 Prozent der injizierten Aktivität
- Prozent der injizierten Aktivität in den entsprechend Organen (Magen, 2′): 0,81 Prozent der injizierten Aktivität
- Prozent der injizierten Aktivität in den entsprechend Organen (Magen, 10′): 1,20 Prozent der injizierten Aktivität
- Prozent der injizierten Aktivität in den entsprechend Organen (Magen, 20′): 1,28 Prozent der injizierten Aktivität
- Prozent der injizierten Aktivität in den entsprechend Organen (Magen, 40′): 1,37 Prozent der injizierten Aktivität
- Prozent der injizierten Aktivität in den entsprechend Organen (Magen, 60′): 1,96 Prozent der injizierten Aktivität
- Prozent der injizierten Aktivität in den entsprechend Organen (Magen, 6h): 1,35 Prozent der injizierten Aktivität
- Prozent der injizierten Aktivität in den entsprechend Organen (Magen, 15h): 0,346 Prozent der injizierten Aktivität
- Prozent der injizierten Aktivität in den entsprechend Organen (Milz, 2′): 0,26 Prozent der injizierten Aktivität
- Prozent der injizierten Aktivität in den entsprechend Organen (Milz, 10′): 0,21 Prozent der injizierten Aktivität
- Prozent der injizierten Aktivität in den entsprechend Organen (Milz, 20′): 0,11 Prozent der injizierten Aktivität
- Prozent der injizierten Aktivität in den entsprechend Organen (Milz, 40′): 0,06 Prozent der injizierten Aktivität
- Prozent der injizierten Aktivität in den entsprechend Organen (Milz, 60′): 0,03 Prozent der injizierten Aktivität
- Prozent der injizierten Aktivität in den entsprechend Organen (Milz, 6h): 0,008 Prozent der injizierten Aktivität
- Prozent der injizierten Aktivität in den entsprechend Organen (Milz, 15h): 0,0035 Prozent der injizierten Aktivität
- Prozent der injizierten Aktivität in den entsprechend Organen (Nieren, 2′): 3,15 Prozent der injizierten Aktivität
- Prozent der injizierten Aktivität in den entsprechend Organen (Nieren, 10′): 7,48 Prozent der injizierten Aktivität
- Prozent der injizierten Aktivität in den entsprechend Organen (Nieren, 20′): 6,25 Prozent der injizierten Aktivität
- Prozent der injizierten Aktivität in den entsprechend Organen (Nieren, 40′): 1,53 Prozent der injizierten Aktivität
- Prozent der injizierten Aktivität in den entsprechend Organen (Nieren, 60′): 0,79 Prozent der injizierten Aktivität
- Prozent der injizierten Aktivität in den entsprechend Organen (Nieren, 6h): 0,04 Prozent der injizierten Aktivität
- Prozent der injizierten Aktivität in den entsprechend Organen (Nieren, 15h): 0,009 Prozent der injizierten Aktivität
- Prozent der injizierten Aktivität in den entsprechend Organen (Ovar, 2′): 0,09 Prozent der injizierten Aktivität
- Prozent der injizierten Aktivität in den entsprechend Organen (Ovar, 10′): 0,06 Prozent der injizierten Aktivität
- Prozent der injizierten Aktivität in den entsprechend Organen (Ovar, 20′): 0,05 Prozent der injizierten Aktivität
- Prozent der injizierten Aktivität in den entsprechend Organen (Ovar, 40′): 0,02 Prozent der injizierten Aktivität
- Prozent der injizierten Aktivität in den entsprechend Organen (Ovar, 60′): 0,02 Prozent der injizierten Aktivität
- Prozent der injizierten Aktivität in den entsprechend Organen (Ovar, 6h): 0,003 Prozent der injizierten Aktivität
- Prozent der injizierten Aktivität in den entsprechend Organen (Ovar, 15h): 0,0008 Prozent der injizierten Aktivität
- Prozent der injizierten Aktivität in den entsprechend Organen (Restkörper, 2′): 63,94 Prozent der injizierten Aktivität
- Prozent der injizierten Aktivität in den entsprechend Organen (Restkörper, 10′): 29,92 Prozent der injizierten Aktivität
- Prozent der injizierten Aktivität in den entsprechend Organen (Restkörper, 20′): 25,92 Prozent der injizierten Aktivität
- Prozent der injizierten Aktivität in den entsprechend Organen (Restkörper, 40′): 11,04 Prozent der injizierten Aktivität
- Prozent der injizierten Aktivität in den entsprechend Organen (Restkörper, 60′): 7,09 Prozent der injizierten Aktivität
- Prozent der injizierten Aktivität in den entsprechend Organen (Restkörper, 6h): 2,88 Prozent der injizierten Aktivität
- Prozent der injizierten Aktivität in den entsprechend Organen (Restkörper, 15h): 1,30 Prozent der injizierten Aktivität
- Prozent der injizierten Aktivität in den entsprechend Organen (Schilddrüse, 2′): 0,18 Prozent der injizierten Aktivität
- Prozent der injizierten Aktivität in den entsprechend Organen (Schilddrüse, 10′): 0,15 Prozent der injizierten Aktivität
- Prozent der injizierten Aktivität in den entsprechend Organen (Schilddrüse, 20′): 0,18 Prozent der injizierten Aktivität
- Prozent der injizierten Aktivität in den entsprechend Organen (Schilddrüse, 40′): 0,03 Prozent der injizierten Aktivität
- Prozent der injizierten Aktivität in den entsprechend Organen (Schilddrüse, 60′): 0,02 Prozent der injizierten Aktivität
- Prozent der injizierten Aktivität in den entsprechend Organen (Schilddrüse, 6h): 0,008 Prozent der injizierten Aktivität
- Prozent der injizierten Aktivität in den entsprechend Organen (Schilddrüse, 15h): 0,0015 Prozent der injizierten Aktivität
- Prozent der injizierten Aktivität in den entsprechend Organen (Totalkörper, 2′): 99,75 Prozent der injizierten Aktivität
- Prozent der injizierten Aktivität in den entsprechend Organen (Totalkörper, 10′): 92,96 Prozent der injizierten Aktivität
- Prozent der injizierten Aktivität in den entsprechend Organen (Totalkörper, 20′): 78,87 Prozent der injizierten Aktivität
- Prozent der injizierten Aktivität in den entsprechend Organen (Totalkörper, 40′): 47,80 Prozent der injizierten Aktivität
- Prozent der injizierten Aktivität in den entsprechend Organen (Totalkörper, 60′): 43,17 Prozent der injizierten Aktivität
- Prozent der injizierten Aktivität in den entsprechend Organen (Totalkörper, 6h): 24,16 Prozent der injizierten Aktivität
